How the values were obtained:
[1] = biological target: Cat L (UniProt P07711); assay: Cathepsin enzyme inhibition assay (fluorogenic peptide substrate Z-Val-Val-Arg-AMC), Cathepsin L; assay type: biochemical, human and mouse; conditions: enzyme 1 nM, substrate 20 μM, pH 6.5; read-out: CatL IC50
Method in brief: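 Fluorogenic cleavage of Z-Val-Val-Arg-AMC (20 μM) by 1 nM Cat L was monitored at ex 360/em 465 nm for 20 min, the linear phase. The buffer was 100 mM potassium phosphate pH 6.5 with 5 mM EDTA and DTT. IC50 values were derived by standard methods, in μM.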

[2] = biological target: Cathepsin S (UniProt P25774); assay: Cathepsin enzyme inhibition assay (fluorogenic peptide substrate Z-Val-Val-Arg-AMC), Cathepsin S; assay type: biochemical, human and mouse; conditions: enzyme 1 nM, substrate 20 μM, pH 6.5; read-out: CatS IC50
Method in brief: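 Compounds were combined with 1 nM human or mouse enzyme, and substrate then started the reaction. The buffer was potassium phosphate (100 mM, pH 6.5) containing EDTA-Na 5 mM, Triton X-100 0.001% and […] 5 mM.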

SMILES | IC50 [1] | IC50 [2]
Cc1cc(N2C[C@H](S(=O)(=O)c3ccccc3C(F)(F)F)C[C@@H]2C(=O)NC2(C#N)CC2)n(C2CCCCC2)n1 [Example 320, (2R,4R)-1-(2-Cyclohexyl-5-methyl-2H-pyrazol-3-yl)-4-(2-trifluoromethyl-benzenesulfonyl)-pyrrolidine-2-carboxylic acid (1-cyano-cyclopropyl)-amide] | ≥ 25000 nM | 80.5 nM
N#CC1(NC(=O)[C@@H]2C[C@@H](S(=O)(=O)c3ccccc3C(F)(F)F)CN2c2cc(C3CC3)nn2C2CCC2)CC1 [Example 398, (2S,4R)-1-(2-Cyclobutyl-5-cyclopropyl-2H-pyrazol-3-yl)-4-(2-trifluoromethyl-benzenesulfonyl)-pyrrolidine-2-carboxylic acid (1-cyano-cyclopropyl)-amide] | 18800 nM | 0.555 nM
C[C@H](Oc1ccc(S(=O)(=O)[C@@H]2C[C@@H](C(=O)NC3(C#N)CC3)N(C(=O)C3(C)CC3)C2)c(Cl)c1)C(F)(F)F [Example 199, (2S,4R)-4-[2-Chloro-4-((S)-2,2,2-trifluoro-1-methyl-ethoxy)-benzenesulfonyl]-1-(1-methyl-cyclopropanecarbonyl)-pyrrolidine-2-carboxylic acid (1-cyano-cyclopropyl)-amide] | 7740 nM | 0.5 nM
N#CCNC(=O)[C@@H]1C[C@@H](S(=O)(=O)c2ccccc2C(F)(F)F)CN1C(=O)C1CCOCC1 [Example 68, (2S,4R)-1-(Tetrahydro-pyran-4-carbonyl)-4-(2-trifluoromethyl-benzenesulfonyl)-pyrrolidine-2-carboxylic acid cyanomethyl-amide] | ≥ 25000 nM | 0.3 nM
N#CC1(NC(=O)[C@@H]2C[C@@H](S(=O)(=O)c3ccc(OCC(F)(F)F)cc3Cl)CN2C(=O)c2ccccc2C(F)(F)F)CC1 [Example 177, (2S,4R)-4-[2-Chloro-4-(2,2,2-trifluoro-ethoxy)-benzenesulfonyl]-1-(2-trifluoromethyl-benzoyl)-pyrrolidine-2-carboxylic acid (1-cyano-cyclopropyl)-amide] | 5830 nM | 0.29 nM
Cc1cc(N2C[C@H](S(=O)(=O)c3ccc(F)cc3C(F)(F)F)C[C@H]2C(=O)NC2(C#N)CC2)n(C2CCOCC2)n1 [Example 396, (2S,4R)-4-(4-Fluoro-2-trifluoromethyl-benzenesulfonyl)-1-[5-methyl-2-(tetrahydro-pyran-4-yl)-2H-pyrazol-3-yl]-pyrrolidine-2-carboxylic acid (1-cyano-cyclopropyl)-amide] | 57500 nM | 1.65 nM
N#CCNC(=O)C12CC(F)(F)CN1CCC2S(=O)(=O)c1ccccc1 (stereo not drawn) [Example 116, 1-Benzenesulfonyl-6,6-difluoro-tetrahydro-pyrrolizine-7a-carboxylic acid cyanomethyl-amide, diasteromer Δ1] | ≥ 25000 nM | 35.5 nM
CC(C)(C)c1ccccc1N1CC(S(=O)(=O)c2ccccc2C(F)(F)F)CC1C(=O)NC1(C#N)CC1 (stereo not drawn) [Example 355, 1-(2-tert-Butyl-phenyl)-4-(2-trifluoromethyl-benzenesulfonyl)-pyrrolidine-2-carboxylic acid (1-cyano-cyclopropyl)-amide] | ≥ 25000 nM | 2450 nM
Cc1cc(N2C[C@H](S(=O)(=O)c3ccc(-n4cccn4)cc3C(F)(F)F)C[C@H]2C(=O)NC2(C#N)CC2)n(C2CCC2)n1 [Example 416, (2S,4R)-1-(2-Cyclobutyl-5-methyl-2H-pyrazol-3-yl)-4-(4-pyrazol-1-yl-2-trifluoromethyl-benzenesulfonyl)-pyrrolidine-2-carboxylic acid (1-cyano-cyclopropyl)-amide] | 21400 nM | 0.338 nM
N#CCNC(=O)[C@@H]1C[C@@H](S(=O)(=O)c2ccccc2)CN1Cc1ccccc1 [Example 54, (2S,4R)-4-Benzenesulfonyl-1-benzyl-pyrrolidine-2-carboxylic acid cyanomethyl-amide] | 5340 nM | 210 nM
Cc1cc(N2C[C@H](S(=O)(=O)c3ccccc3C(F)(F)F)C[C@H]2C(=O)NC2(C#N)CC2)n(-c2ccnc3ccccc23)n1 [Example 352, (2S,4R)-1-(5-Methyl-2-quinolin-4-yl-2H-pyrazol-3-yl)-4-(2-trifluoromethyl-benzenesulfonyl)-pyrrolidine-2-carboxylic acid (1-cyano-cyclopropyl)-amide] | 7230 nM | 0.25 nM
CC(C)(C)OC(=O)N1C[C@H](S(=O)(=O)c2ccc(OC3COC3)cc2Cl)C[C@H]1C(=O)NC1(C#N)CC1 [Example 174, (2S,4R)-4-[2-Chloro-4-(oxetan-3-yloxy)-benzenesulfonyl]-2-(1-cyano-cyclopropylcarbamoyl)-pyrrolidine-1-carboxylic acid tert.-butyl ester] | 41500 nM | 3.3 nM

Stronger by IC50 [1], values ahead:

IC50 [1] | IC50 [2] | SMILES
2680 nM | 0.38 nM | N#CC1(NC(=O)[C@@H]2C[C@@H](S(=O)(=O)c3ccc(OCC(F)(F)F)cc3Cl)CN2C(=O)C(c2ccc(Cl)cc2)c2ccc(Cl)cc2)CC1 [Example 275, (2S,4R)-1-[2,2-Bis-(4-chloro-phenyl)-acetyl]-4-[2-chloro-4-(2,2,2-trifluoro-ethoxy)-benzenesulfonyl]-pyrrolidine-2-carboxylic acid (1-cyano-cyclopropyl)-amide]
2600 nM | 0.227 nM | N#CC1(NC(=O)[C@@H]2C[C@@H](S(=O)(=O)c3ccccc3Cl)CN2C(=O)C2(c3ccncc3)CC2)CC1 [Example 285, (2S,4R)-4-(2-Chloro-benzenesulfonyl)-1-(1-pyridin-4-yl-cyclopropanecarbonyl)-pyrrolidine-2-carboxylic acid (1-cyano-cyclopropyl)-amide]
22 nM | 0.605 nM | N#CC1(NC(=O)[C@@H]2C[C@@H](S(=O)(=O)c3ccccc3Cl)CN2C(=O)C2(c3ccc(Cl)cc3Cl)CC2)CC1 [Example 443, (2S,4R)-4-(2-Chloro-benzenesulfonyl)-1-[1-(2,4-dichloro-phenyl)-cyclopropanecarbonyl]-pyrrolidine-2-carboxylic acid (1-cyano-cyclopropyl)-amide]
4360 nM | 1.85 nM | N#CC1(NC(=O)[C@@H]2C[C@@H](S(=O)(=O)c3ccccc3Cl)CN2C(=O)Cn2ccc(C(F)(F)F)n2)CC1 [Example 422, (2S,4R)-4-(2-Chloro-benzenesulfonyl)-1-[2-(3-trifluoromethyl-pyrazol-1-yl)-acetyl]-pyrrolidine-2-carboxylic acid (1-cyano-cyclopropyl)-amide]
4760 nM | 6.6 nM | Cc1cc(N2C[C@H](S(=O)(=O)c3ccccc3Cl)C[C@H]2C(=O)NC2(C#N)CC2)n(Cc2cncn2C)n1 [Example 476, (2S,4R)-4-(2-Chloro-benzenesulfonyl)-1-[5-methyl-2-(3-methyl-3H-imidazol-4-ylmethyl)-2H-pyrazol-3-yl]-pyrrolidine-2-carboxylic acid (1-cyano-cyclopropyl)-amide]
1340 nM | 0.08 nM | COCCN1CCN(c2ccc(S(=O)(=O)[C@@H]3C[C@@H](C(=O)NC4(C#N)CC4)N(C(=O)C4(C(F)(F)F)CC4)C3)c(Cl)c2)CC1 [Example 297, (2S,4R)-4-{2-Chloro-4-[4-(2-methoxy-ethyl)-piperazin-1-yl]-benzenesulfonyl}-1-(1-trifluoromethyl-cyclopropanecarbonyl)-pyrrolidine-2-carboxylic acid (1-cyano-cyclopropyl)-amide]
